Test results: PubChem BioAssay AID504515 (Sanford-Burnham Center for Chemical Genomics, 2011)
Calls of active or inactive are those of the source.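 How the source made its calls: active means mean IC50 below 800 nM; inactive means the rest.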

System: Jurkat NF-kB luciferase, PMA/ionomycin-induced, luminescence 16 h
Assay: NF-kB reporter inhibition in Jurkat T cells, SAR follow-up, B-cell antigen receptor NF-kB inhibitors, cell-based, luminescence, set 2 (AID 504515)

Row | IC50 | SMILES
1 | 30 nM | CCCOc1ccc(-c2nc(CSCC(=O)O)c(C)o2)cc1
2 | 290 nM | Cc1oc(-c2ccc(OC(F)(F)F)cc2)nc1CSCC(=O)O
3 | 70 nM | CCCCOc1ccc(-c2nc(CSCC(=O)O)c(C)o2)cc1
4 | > 800 nM (inactive) | CCCOc1ccc(-c2nc(CSCC(=O)NCc3ccco3)c(C)o2)cc1
5 | > 800 nM (inactive) | CCCCc1ccc(-c2noc(CCC(=O)NC)n2)cc1
6 | > 800 nM (inactive) | C#CCNC(=O)CSCc1nc(-c2ccc(OCC)cc2)oc1C
7 | > 800 nM (inactive) | CCCCc1ccc(-c2noc(CCC(=O)NCC)n2)cc1
8 | > 800 nM (inactive) | CC(C)c1ccc(-c2noc(CCC(=O)NC3CC3)n2)cc1
9 | > 800 nM (inactive) | CCOc1ccc(-c2nc(CSCC(N)=O)c(C)o2)cc1
10 | 30 nM | CCOc1ccc(-c2nc(CSCC(=O)O)c(C)o2)cc1
11 | > 800 nM (inactive) | CCCOc1ccc(-c2nc(CSCC(=O)NC3CC3)c(C)o2)cc1
